From the NIST ThermoML archive (doi:10.1021/je800085u)

Experiment: mn = molality of the nth substance listed, in mol/kg
Conditions: 298.15 K, 101 kPa, Liquid, Taylor dispersion method

CCCCCCCCCCP(C)(C)=O [decyldimethylphosphine oxide] + O
Conditions | binary diffusion coefficient [m2/s]
m1 = 0 | 5.9e-10
m1 = 0.002 | 5.8e-10
m1 = 0.003 | 5.28e-10
m1 = 0.004 | 2.07e-10
m1 = 0.0077 | 1.75e-10
m1 = 0.0111 | 1.56e-10
m1 = 0.0176 | 1.69e-10
m1 = 0.0215 | 1.63e-10
m1 = 0.0296 | 1.55e-10
m1 = 0.04 | 1.58e-10
